Our source for the TGI values is PubChem BioAssay (NCI).

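Results reflect a 48-hour exposure of cells in 96-well plates to compound at five concentrations. Definition used: TGI = concentration required for complete inhibition of growth.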

The first assay relates to HCT-15 colon. Description: NCI anticancer screen, dose series, 48 h.
Regarding `CCCCn1c(C)c2c(c1C)C(=O)N(CC(O)CN1CCc3ccccc3C1)C2=O` (configuration not stated), the TGI is more than 100 µM.

`Cc1cc(C)nc(NS(=O)(=O)c2ccc(NNC(=O)c3cccc4c(=O)c5ccccc5[nH]c34)cc2)n1`: the TGI is more than 100 µM.

On to `S=c1[nH]n2c(COc3cccc(OCc4nnc5sc(=S)[nH]n45)c3)nnc2s1`, for which the TGI was more than 100 µM.

For the compound `CN1CCN(CN2C(=O)C3C4C=CC(C3C2=O)C2C(=O)N(CN3CCN(C)CC3)C(=O)C42)CC1` (configuration not stated), the TGI was more than 100 µM.

`CC(C)(C)c1cc(C(CO)OCCOCCO)cc(C(C)(C)C)c1O` (configuration not stated) returned a TGI of more than 100 µM.

`COc1cc(C2SCC(=O)N2c2ccc(Cl)c(Cl)c2)cc(OC)c1OC` (configuration not stated) displayed a TGI of more than 100 µM.

For `C[C@H]1C2Cc3cc(N)ccc3[C@@]1(C)CCN2CCc1ccccc1`, the TGI is more than 100 µM.

With `CC(/C=N\NC(=S)N1CCCCC1)=N/NC(=S)N1CCCCC1`, the TGI is 19.5 µM.

The compound `CC1C[C@]2(C)C(=O)Nc3ccccc3[C@@H]2Nc2ccccc21` (some centres not stated) had a TGI of more than 100 µM.

`CCCCCC(/C=C/C1CCC(=O)C1CC#C[Si](C)(C)C)OCc1ccccc1` (configuration not stated) yielded a TGI of 30.1 µM.

`O=S(=O)(O)c1ccc(N=Nc2ccc(N=Nc3c(O)ccc4ccccc34)cc2)cc1` yielded a TGI of more than 100 µM.

The next assay has as its system SK-MEL-2 melanoma. Description: NCI anticancer screen, dose series, 48 h.
On to `CCCCn1c(C)c2c(c1C)C(=O)N(CC(O)CN1CCc3ccccc3C1)C2=O` (configuration not stated), for which the TGI stood at 14.8 µM.

Consider `Cc1cc(C)nc(NS(=O)(=O)c2ccc(NNC(=O)c3cccc4c(=O)c5ccccc5[nH]c34)cc2)n1`, for which the TGI was determined as 76.5 µM.

`S=c1[nH]n2c(COc3cccc(OCc4nnc5sc(=S)[nH]n45)c3)nnc2s1`: the TGI is more than 100 µM.

Turning to `CN1CCN(CN2C(=O)C3C4C=CC(C3C2=O)C2C(=O)N(CN3CCN(C)CC3)C(=O)C42)CC1` (configuration not stated), the TGI is more than 100 µM.

`CC(C)(C)c1cc(C(CO)OCCOCCO)cc(C(C)(C)C)c1O` (configuration not stated): the TGI was more than 100 µM.

In turn, `COc1cc(C2SCC(=O)N2c2ccc(Cl)c(Cl)c2)cc(OC)c1OC` (configuration not stated) displayed a TGI of more than 100 µM.

Consider `C[C@H]1C2Cc3cc(N)ccc3[C@@]1(C)CCN2CCc1ccccc1`, for which the TGI was more than 100 µM.

Compound `CC(/C=N\NC(=S)N1CCCCC1)=N/NC(=S)N1CCCCC1` returned a TGI of 6.36 µM.

Compound `CC1C[C@]2(C)C(=O)Nc3ccccc3[C@@H]2Nc2ccccc21` (some centres not stated) gave a TGI of 45 µM.

`CCCCCC(/C=C/C1CCC(=O)C1CC#C[Si](C)(C)C)OCc1ccccc1` (configuration not stated) had a TGI of 35 µM.

In turn, `O=S(=O)(O)c1ccc(N=Nc2ccc(N=Nc3c(O)ccc4ccccc34)cc2)cc1` yielded a TGI of more than 100 µM.

Another assay deals with MDA-N. Kind of assay: NCI anticancer screen, dose series, 48 h.
Consider `CCCCn1c(C)c2c(c1C)C(=O)N(CC(O)CN1CCc3ccccc3C1)C2=O` (configuration not stated), for which the TGI is more than 100 µM.

For the compound `Cc1cc(C)nc(NS(=O)(=O)c2ccc(NNC(=O)c3cccc4c(=O)c5ccccc5[nH]c34)cc2)n1`, the TGI was more than 100 µM.

`S=c1[nH]n2c(COc3cccc(OCc4nnc5sc(=S)[nH]n45)c3)nnc2s1` displayed a TGI of more than 100 µM.

Turning to `CN1CCN(CN2C(=O)C3C4C=CC(C3C2=O)C2C(=O)N(CN3CCN(C)CC3)C(=O)C42)CC1` (configuration not stated), the TGI was more than 100 µM.

As to `CC(C)(C)c1cc(C(CO)OCCOCCO)cc(C(C)(C)C)c1O` (configuration not stated), the TGI is more than 100 µM.

`COc1cc(C2SCC(=O)N2c2ccc(Cl)c(Cl)c2)cc(OC)c1OC` (configuration not stated) showed a TGI of 45.9 µM.

In turn, `C[C@H]1C2Cc3cc(N)ccc3[C@@]1(C)CCN2CCc1ccccc1` gave a TGI of more than 100 µM.

With `CC(/C=N\NC(=S)N1CCCCC1)=N/NC(=S)N1CCCCC1`, the TGI was 12.1 µM.

Compound `CC1C[C@]2(C)C(=O)Nc3ccccc3[C@@H]2Nc2ccccc21` (some centres not stated) gave a TGI of more than 100 µM.

`CCCCCC(/C=C/C1CCC(=O)C1CC#C[Si](C)(C)C)OCc1ccccc1` (configuration not stated) registered a TGI of 42.6 µM.

For `O=S(=O)(O)c1ccc(N=Nc2ccc(N=Nc3c(O)ccc4ccccc34)cc2)cc1`, the TGI is more than 100 µM.

For a further assay, the system named is LOX IMVI melanoma. Kind of assay: NCI anticancer screen, dose series, 48 h.
`CCCCn1c(C)c2c(c1C)C(=O)N(CC(O)CN1CCc3ccccc3C1)C2=O` (configuration not stated) displayed a TGI of more than 100 µM.

With `Cc1cc(C)nc(NS(=O)(=O)c2ccc(NNC(=O)c3cccc4c(=O)c5ccccc5[nH]c34)cc2)n1`, the TGI was more than 100 µM.

Compound `S=c1[nH]n2c(COc3cccc(OCc4nnc5sc(=S)[nH]n45)c3)nnc2s1` had a TGI of more than 100 µM.

In turn, `CN1CCN(CN2C(=O)C3C4C=CC(C3C2=O)C2C(=O)N(CN3CCN(C)CC3)C(=O)C42)CC1` (configuration not stated) gave a TGI of more than 63 µM.

In the case of `CC(C)(C)c1cc(C(CO)OCCOCCO)cc(C(C)(C)C)c1O` (configuration not stated), the TGI is more than 100 µM.

In turn, `COc1cc(C2SCC(=O)N2c2ccc(Cl)c(Cl)c2)cc(OC)c1OC` (configuration not stated) registered a TGI of more than 100 µM.

As to `C[C@H]1C2Cc3cc(N)ccc3[C@@]1(C)CCN2CCc1ccccc1`, the TGI came to 41.2 µM.

In turn, `CC(/C=N\NC(=S)N1CCCCC1)=N/NC(=S)N1CCCCC1` returned a TGI of more than 100 µM.

`CC1C[C@]2(C)C(=O)Nc3ccccc3[C@@H]2Nc2ccccc21` (some centres not stated) registered a TGI of 30.8 µM.

Turning to `CCCCCC(/C=C/C1CCC(=O)C1CC#C[Si](C)(C)C)OCc1ccccc1` (configuration not stated), the TGI amounted to 35.8 µM.

As to `O=S(=O)(O)c1ccc(N=Nc2ccc(N=Nc3c(O)ccc4ccccc34)cc2)cc1`, the TGI is more than 100 µM.

The next assay deals with HT29 colon. Kind of assay: NCI anticancer screen, dose series, 48 h.
With `CCCCn1c(C)c2c(c1C)C(=O)N(CC(O)CN1CCc3ccccc3C1)C2=O` (configuration not stated), the TGI is more than 100 µM.

The compound `Cc1cc(C)nc(NS(=O)(=O)c2ccc(NNC(=O)c3cccc4c(=O)c5ccccc5[nH]c34)cc2)n1` showed a TGI of more than 100 µM.

`S=c1[nH]n2c(COc3cccc(OCc4nnc5sc(=S)[nH]n45)c3)nnc2s1`: the TGI is more than 100 µM.

Compound `CN1CCN(CN2C(=O)C3C4C=CC(C3C2=O)C2C(=O)N(CN3CCN(C)CC3)C(=O)C42)CC1` (configuration not stated) came in with a TGI of 49.3 µM.

Consider `CC(C)(C)c1cc(C(CO)OCCOCCO)cc(C(C)(C)C)c1O` (configuration not stated), for which the TGI is more than 100 µM.

For the compound `COc1cc(C2SCC(=O)N2c2ccc(Cl)c(Cl)c2)cc(OC)c1OC` (configuration not stated), the TGI is more than 100 µM.

Take `C[C@H]1C2Cc3cc(N)ccc3[C@@]1(C)CCN2CCc1ccccc1`: the TGI is more than 100 µM.

In turn, `CC(/C=N\NC(=S)N1CCCCC1)=N/NC(=S)N1CCCCC1` came in with a TGI of 62.4 µM.
